The text below walks through data of patent US6734292B1, “Pseudoerythromycin derivatives” (The Kitasato Institute, priority 2002, dated 2004).

A word on the melting point: it is the temperature, or range, at which the solid turns liquid.

Values joined by “and” are separate entries in the source; they are usually repeats but may differ in a detail not shown here. Equal values may be shown once.

For one data set, the system named is THP-1 cells. The data set can be described thus: enhancing effect for differentiation-induction from human monocyte to macrophage (THP-1/Mφ system, MTT readout). Type of data set: cell-based. Details: key: ++: enhanced 100% or more; +: enhanced 50-100%; ±: enhanced 25-50%; −: no activity; /: expressed cytoxicity; NT: not tested or under assessment. To be noted: in comparison with enhancing action for differentiation-induction of EM 100 μM. Here is the method: In order to confirm enhancing effect for differentiation-induction of the compounds of the present invention, the enhancing effect for differentiation-induction from human monocyte to macrophage was assayed. Method is performed as follows. THP-1 cells were collected from cultured liquid by centrifugation, adjusted the concentration to 2×10^5 cells/ml using medium (RPMI 1640) and distributed into the 48-well plate at 500 μl/well. PMA solution 10 μl and sample solution 5 μl were added in each well, stirred with mild shaking and incubated at 37° C. for 72-96 hours under 5% CO2. Further MTT 0.5 mg/ml solution was added at 300 μl/well, and incubated at 37° C. for 3 hours under 5% CO2. Supernatant solution was suctioned using the injection tube, added DMSO 500 μl using automatic continuous injector to dissolve formazan completely and transferred each 100 μl to the 96-well plate. The optical absorption was measured using the plate-reader.

For data set [1], the system named is bleomycin-induced pulmonary fibrosis. The data set can be described thus: suppressive effect against bleomycin-induced pulmonary fibrosis (hydroxyproline levels in tissue). In kind it is in vivo, mice. To be noted: BLM group: BLM 100 mg/kg tail vein day-0 only, day-28, individual mice.

Compound `CC[C@H]1O[C@]2(O)O[C@H]([C@@H](C)C3O[C@@](C)(C[C@@H]3C)[C@H](O[C@@H]3OC(C)CC(N4CCCCC4)C3O)[C@@H](C)[C@H](O[C@H]3CC(C)(OC)[C@@H](O)C(C)O3)[C@H]2C)[C@]1(C)O` (stereo partly drawn) [EM734, de(3′-dimethylamino)-3′-piperidino-8,9-anhydro-pseudoerythromycin A 6,9-hemiketal] registered a melting point of 128 to 130 °C. For the same compound, in the data set on THP-1 cells, the “activities in THP-1/Mφ system, Treated conc. 0.3 μM” value (from here on “activities … Treated conc. 0.3 μM”) is on record as “−”; the “activities in THP-1/Mφ system, Treated conc. 1 μM” value (from here on “activities … Treated conc. 1 μM”) is recorded as “± (enhanced 25-50%)”; the “activities in THP-1/Mφ system, Treated conc. 3 μM” value (shortened to “activities … Treated conc. 3 μM”) is “+ (enhanced 50-100%)”; the “activities in THP-1/Mφ system, Treated conc. 10 μM” value (“activities … Treated conc. 10 μM” for short) is recorded as “+ (enhanced 50-100%)”.
In turn, `CCCCCCNC1CC(C)O[C@@H](O[C@@H]2[C@@H](C)[C@H](O[C@H]3CC(C)(OC)[C@@H](O)C(C)O3)[C@@H](C)[C@@]3(O)O[C@H]([C@@H](C)C4O[C@@]2(C)C[C@@H]4C)[C@](C)(O)[C@@H](CC)O3)C1O` (stereo partly drawn) [EM738, bis-de(3′-N-methyl)-3′-N-hexyl-8,9-anhydro-pseudoerythromycin A 6,9-hemiketal] gave a melting point of 115 to 118 °C. Also, in the data set on THP-1 cells, the “activities … Treated conc. 0.3 μM” value is “−”; the “activities … Treated conc. 1 μM” value was “± (enhanced 25-50%)”; the “activities … Treated conc. 3 μM” value is reported as “+ (enhanced 50-100%)”.
In the case of `CCCCCCN(CCCCCC)C1CC(C)O[C@@H](O[C@@H]2[C@@H](C)[C@H](O[C@H]3CC(C)(OC)[C@@H](O)C(C)O3)[C@@H](C)[C@@]3(O)O[C@H]([C@@H](C)C4O[C@@]2(C)C[C@@H]4C)[C@](C)(O)[C@@H](CC)O3)C1O` (stereo partly drawn) [EM739, bis-de(3′-N-methyl)-3′,3′-N,N-dihexyl-8,9-anhydro-pseudoerythromycin A 6,9-hemiketal], the melting point was 158 to 160 °C. For the same compound, in the data set on THP-1 cells, the “activities … Treated conc. 0.3 μM” value was “−”; the “activities … Treated conc. 1 μM” value is given as “± (enhanced 25-50%)”; the “activities … Treated conc. 3 μM” value is “+ (enhanced 50-100%)”; the “activities … Treated conc. 10 μM” value is “+ (enhanced 50-100%)”.
In the case of `CCC(O)C(C)(O)C1OC(=O)C(C)C(OC2CC(C)(OC)C(O)C(C)O2)C(C)C(OC2OC(C)CC(N(C)CCF)C2O)C2(C)CC(C)=C(O2)C1C` (stereo not drawn) [EM740], in the data set on THP-1 cells, the “activities … Treated conc. 0.3 μM” value is “± (enhanced 25-50%)”; the “activities … Treated conc. 1 μM” value is recorded as “± (enhanced 25-50%)”; the “activities … Treated conc. 3 μM” value was “+ (enhanced 50-100%)”; the “activities … Treated conc. 10 μM” value is “+ (enhanced 50-100%)”. In the data set with THP-1 cells, the “activities in THP-1/Mφ system, Treated conc. 30 μM” value (shortened to “activities … Treated conc. 30 μM”) is given as “+ (enhanced 50-100%)”.
Turning to `CCC(O)C(C)(O)C1OC(=O)C(C)C(OC2CC(C)(OC)C(O)C(C)O2)C(C)C(OC2OC(C)CC(N(C)CC#N)C2O)C2(C)CC(C)=C(O2)C1C` (stereo not drawn) [EM742, de(3′-N-methyl)-3′-cyanomethyl-8,9-anhydro-pseudoerythromycin A 6,9-hemiketal], in the data set on THP-1 cells, the “activities … Treated conc. 0.3 μM” value is “−”; the “activities … Treated conc. 1 μM” value is “−”; the “activities … Treated conc. 3 μM” value is given as “−”; the “activities … Treated conc. 10 μM” value is recorded as “+ (enhanced 50-100%)”. For the same compound, the “activities … Treated conc. 30 μM” value in the data set on THP-1 cells is “+ (enhanced 50-100%)”.
For `COC1(C)CC(OC2C(C)C(=O)OC(C(C)=NO)C(C)C3=C(C)CC(C)(O3)C(OC3OC(C)CC(N(C)C)C3O)C2C)OC(C)C1O` (stereo not drawn) [EM743, de(12-hydroxy)-de[12-(1-hydroxypropyl)]-12-hydroxyoxime-8,9-anhydro-pseudoerythromycin A 6,9-hemiketal], in the data set on THP-1 cells, the “activities … Treated conc. 1 μM” value is reported as “−”; the “activities … Treated conc. 3 μM” value is given as “± (enhanced 25-50%)”; the “activities … Treated conc. 10 μM” value is reported as “−”.
Turning to `CC[C@@H](O)[C@@](C)(O)[C@@H]1OC(=O)[C@H](C)[C@@H](O[C@H]2C[C@@](C)(OC)[C@@H](O)[C@H](C)O2)[C@H](C)[C@@H](O[C@@H]2O[C@H](C)C[C@H](N(C)CCCO)[C@H]2O)[C@@]2(C)CC(C)=C(O2)[C@@H]1C` [EM744], in the data set with THP-1 cells, the “activities … Treated conc. 1 μM” value is given as “−”; the “activities … Treated conc. 3 μM” value was “−”; the “activities … Treated conc. 10 μM” value is “−”.
As for `CC[C@@H](O)[C@@](C)(O)[C@@H]1OC(=O)[C@H](C)[C@@H](O[C@H]2C[C@@](C)(OC)[C@@H](O)[C@H](C)O2)[C@H](C)[C@@H](O[C@@H]2O[C@H](C)C[C@H](N(C)CCOC(C)=O)[C@H]2O)[C@@]2(C)CC(C)=C(O2)[C@@H]1C` [EM745, de(3′-N-methyl)-3′-N-(2-acetoxyethyl)-8,9-anhydro-pseudoerythromycin A 6,9-hemiketal], in the data set with THP-1 cells, the “activities … Treated conc. 0.3 μM” value is “−”; the “activities … Treated conc. 1 μM” value is recorded as “−”; the “activities … Treated conc. 3 μM” value is “++ (enhanced 100% or more)”; the “activities … Treated conc. 10 μM” value is “++ (enhanced 100% or more)”. Besides, the “activities … Treated conc. 30 μM” value in the data set on THP-1 cells is given as “++ (enhanced 100% or more)”.
On to `COC1(C)CC(OC2C(C)C(=O)OC(C(C)O)C(C)C3=C(C)CC(C)(O3)C(OC3OC(C)CC(N(C)C)C3O)C2C)OC(C)C1O` (stereo not drawn) [EM746, de[12-(hydroxypropyl)]-8,9-anhydro-pseudo erythromycin A 6,9-hemiketal], for which, in the data set with THP-1 cells, the “activities … Treated conc. 0.3 μM” value was “−”; the “activities … Treated conc. 1 μM” value is on record as “± (enhanced 25-50%)”; the “activities … Treated conc. 3 μM” value was “+ (enhanced 50-100%)”; the “activities … Treated conc. 10 μM” value is listed as “+ (enhanced 50-100%)”. Further, in the data set on THP-1 cells, the “activities … Treated conc. 30 μM” value is listed as “+ (enhanced 50-100%)”.
For the compound `CC[C@@H](O)[C@@](C)(O)[C@@H]1OC(=O)[C@H](C)[C@@H](O[C@H]2C[C@@](C)(OC)[C@@H](O)[C@H](C)O2)[C@H](C)[C@@H](O[C@@H]2O[C@H](C)C[C@H](N3CCOCC3)[C@H]2O)[C@@]2(C)CC(C)=C(O2)[C@@H]1C` [EM747, de(3′-dimethylamino)-3′-morpholino-8,9-anhydro-pseudoerythromycin A 6,9-hemiketal], in the data set with THP-1 cells, the “activities … Treated conc. 3 μM” value is listed as “−”; the “activities … Treated conc. 10 μM” value is listed as “± (enhanced 25-50%)”; the “activities … Treated conc. 30 μM” value is listed as “++ (enhanced 100% or more)”.
For the compound `CCC(O)C(C)(O)C1OC(=O)C(C)C(OC2CC(C)(OC)C(O)C(C)O2)C(C)C(OC2OC(C)CC(N(CCCCCCCCCCBr)CCCCCCCCCCBr)C2O)C2(C)CC(C)=C(O2)C1C` (stereo not drawn) [EM749, bis-de(3′-N-methyl)-3′,3′-N,N-di-(10-bromo-1-decanyl)-8,9-anhydro-pseudoerythromycin A 6,9-hemiketal], in the data set with THP-1 cells, the “activities … Treated conc. 1 μM” value is “± (enhanced 25-50%)”; the “activities … Treated conc. 3 μM” value was “+ (enhanced 50-100%)”; the “activities … Treated conc. 10 μM” value is recorded as “+ (enhanced 50-100%)”; the “activities … Treated conc. 30 μM” value is “/insolule”.
Consider `COC1(C)CC(OC2C(C)C(=O)OC(C(C)N)C(C)C3=C(C)CC(C)(O3)C(OC3OC(C)CC(N(C)C)C3O)C2C)OC(C)C1O` (stereo not drawn) [EM750, de(12-hydroxy)-de[12-(hydroxypropyl)]-12-amino-8,9-anhydro-pseudoerythromycin A 6,9-hemiketal], for which, in the data set with THP-1 cells, the “activities … Treated conc. 1 μM” value is reported as “−”; the “activities … Treated conc. 3 μM” value is on record as “−”; the “activities … Treated conc. 10 μM” value is recorded as “± (enhanced 25-50%)”.
Consider `CCC(O)C(C)(O)C1OC(=O)C(C)C(O)C(C)C(OC2OC(C)CC(NC)C2O)C2(C)CC(C)=C(O2)C1C` (stereo not drawn) [EM754, de(3-O-cladinosyl) -de(3′-N-methyl) -8,9-anhydrous-pseudoerythromycin A 6,9-hemiketal], for which, in the data set with THP-1 cells, the “activities … Treated conc. 1 μM” value is “−”; the “activities … Treated conc. 3 μM” value is recorded as “−”; the “activities … Treated conc. 30 μM” value is listed as “+ (enhanced 50-100%)”.
Turning to `CC[C@H]1OC(=O)[C@H](C)[C@@H](O[C@H]2C[C@@](C)(OC)[C@@H](O)[C@H](C)O2)[C@H](C)[C@@H](O[C@@H]2O[C@H](C)C[C@H](N(C)C)[C@H]2O)[C@](C)(O)C[C@@H](C)C(=NO)[C@H](C)[C@@H](O)[C@]1(C)O` [EM oxim, reference compound], in the data set with THP-1 cells, the “activities … Treated conc. 1 μM” value is on record as “−”; the “activities … Treated conc. 3 μM” value is given as “± (enhanced 25-50%)”; the “activities … Treated conc. 10 μM” value was “± (enhanced 25-50%)”; the “activities … Treated conc. 30 μM” value was “++ (enhanced 100% or more)”.
For the compound `CC[C@H]1OC(=O)[C@H](C)[C@@H](O[C@H]2C[C@@](C)(OC)[C@@H](O)[C@H](C)O2)[C@H](C)[C@@H](O[C@@H]2O[C@H](C)C[C@H](N(C)C)[C@H]2O)[C@](C)(O)C[C@@H](C)C(=O)[C@H](C)[C@@H](O)[C@]1(C)O` [EM, Erythromycin], in the data set on THP-1 cells, the “activities … Treated conc. 1 μM” value is recorded as “−”; the “activities … Treated conc. 3 μM” value is given as “± (enhanced 25-50%)”; the “activities … Treated conc. 10 μM” value is listed as “+ (enhanced 50-100%)”; the “activities … Treated conc. 30 μM” value is “+ (enhanced 50-100%)”.
In the case of bleomycin [BLM, reference compound], in data set [1], the “Hydroxyproline levels in tissue, Assay result” value was 785 µmol/L and 733 µmol/L; the “Hydroxyproline levels in tissue, Weight conversion” value is 7.1 µmol/g and 6.4 µmol/g.
